In ChEMBL document CHEMBL1201862, “PubChem BioAssay data set” (2004):
Active and inactive are the calls of the source.

What was measured:
[1] = Luminescence Cell Based Dose Confirmation HTS to Identify Activators of 5'UTR Stem-Loop Driven Alpha-Synuclein mRNA Translation in H4 Neuroglioblastoma Cells. [Related pubchem assays (depositor defined):AID1813, AID1829]; format: functional; conditions: Homo sapiens
[2] = molecular target: T1, Voltage-gated N-type calcium channel alpha-1B subunit/Amyloid beta A4 precursor protein-binding family A member 1 (Homo sapiens, UniProt Q00975+Q02410); assay: disruptors of Mint-PDZ/N-type channel peptide interaction – biochemical, HTRF, set 2, SAR follow-up (AID 434980); format: functional
[3] = molecular target: Protein Rev (Human immunodeficiency virus type 1 group M subtype B (isolate HXB2)(HIV-1), UniProt P04618); assay: blockers of HIV Rev/RRE RNA complex – biochemical, fluorescence polarization, HIV-1, dose response (AID 434976); set-up: species or system Human immunodeficiency virus 1
[4] = molecular target: Female germline-specific tumor suppressor gld-1 (Caenorhabditis elegans, UniProt Q17339); assay: blockers of GLD-1/TGE RNA complex formation – biochemical, fluorescence polarization, C. elegans, dose response (AID 2802);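 further: fluorescence polarization of labeled TGE RNA bound by purified gld-1 protein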
[5] = molecular target: T1, Voltage-gated N-type calcium channel alpha-1B subunit/Amyloid beta A4 precursor protein-binding family A member 1; format: protein assay
[6] = molecular target: T1, Voltage-gated N-type calcium channel alpha-1B subunit/Amyloid beta A4 precursor protein-binding family A member 1; format: protein assay; remark: listed apart in the source
[7] = molecular target: T2, Apoptotic protease-activating factor 1 (Homo sapiens, UniProt O14727); format: functional
T2 sequence (O14727 whole entry): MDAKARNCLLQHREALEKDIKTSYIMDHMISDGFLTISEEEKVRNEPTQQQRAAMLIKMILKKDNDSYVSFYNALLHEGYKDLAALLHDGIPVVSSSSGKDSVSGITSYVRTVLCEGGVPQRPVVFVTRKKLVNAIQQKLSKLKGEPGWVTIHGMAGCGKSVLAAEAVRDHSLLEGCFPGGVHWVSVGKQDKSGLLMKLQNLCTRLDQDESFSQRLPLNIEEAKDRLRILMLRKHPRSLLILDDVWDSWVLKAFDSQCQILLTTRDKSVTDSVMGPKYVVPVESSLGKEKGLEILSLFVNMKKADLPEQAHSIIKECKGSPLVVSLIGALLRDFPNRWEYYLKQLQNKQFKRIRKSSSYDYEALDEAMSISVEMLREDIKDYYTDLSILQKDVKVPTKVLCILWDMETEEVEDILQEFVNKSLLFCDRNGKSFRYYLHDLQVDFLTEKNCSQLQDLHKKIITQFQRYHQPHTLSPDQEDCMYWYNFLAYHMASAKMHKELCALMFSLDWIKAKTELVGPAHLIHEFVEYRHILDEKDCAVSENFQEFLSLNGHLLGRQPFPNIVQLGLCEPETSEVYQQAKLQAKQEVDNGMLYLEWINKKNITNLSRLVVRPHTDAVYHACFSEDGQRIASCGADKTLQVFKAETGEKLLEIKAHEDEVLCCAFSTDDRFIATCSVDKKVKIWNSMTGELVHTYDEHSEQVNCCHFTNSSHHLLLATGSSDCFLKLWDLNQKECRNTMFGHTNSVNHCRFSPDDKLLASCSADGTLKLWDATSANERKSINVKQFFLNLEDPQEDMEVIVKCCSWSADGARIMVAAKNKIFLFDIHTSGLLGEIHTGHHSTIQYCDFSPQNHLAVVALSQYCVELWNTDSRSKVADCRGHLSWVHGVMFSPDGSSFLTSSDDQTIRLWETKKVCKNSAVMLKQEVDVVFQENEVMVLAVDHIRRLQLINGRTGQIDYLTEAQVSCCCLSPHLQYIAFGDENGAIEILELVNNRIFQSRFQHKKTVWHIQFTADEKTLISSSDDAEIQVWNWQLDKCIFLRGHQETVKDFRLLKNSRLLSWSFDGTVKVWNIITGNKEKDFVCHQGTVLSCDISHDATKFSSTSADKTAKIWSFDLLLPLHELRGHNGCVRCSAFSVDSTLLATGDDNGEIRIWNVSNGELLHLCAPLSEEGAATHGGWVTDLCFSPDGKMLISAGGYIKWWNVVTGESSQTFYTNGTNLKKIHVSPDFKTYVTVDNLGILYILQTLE

[8] = molecular target: Trypsin (Sus scrofa, UniProt P00761); assay: trypsin protease activity blockade – biochemical, quenched peptide fluorescence, cherry-pick, selectivity assay for Rce1 protease inhibitor project, dose response (AID 488789)
[9] = molecular target: T3, CAAX prenyl protease 2 (Homo sapiens, UniProt Q9Y256); assay: inhibition of Ras-converting CAAX protease Rce1 – biochemical, yeast membranes, quenched-peptide fluorescence, cherry-pick, dose response (AID 588849)
T3 sequence (Q9Y256 whole entry): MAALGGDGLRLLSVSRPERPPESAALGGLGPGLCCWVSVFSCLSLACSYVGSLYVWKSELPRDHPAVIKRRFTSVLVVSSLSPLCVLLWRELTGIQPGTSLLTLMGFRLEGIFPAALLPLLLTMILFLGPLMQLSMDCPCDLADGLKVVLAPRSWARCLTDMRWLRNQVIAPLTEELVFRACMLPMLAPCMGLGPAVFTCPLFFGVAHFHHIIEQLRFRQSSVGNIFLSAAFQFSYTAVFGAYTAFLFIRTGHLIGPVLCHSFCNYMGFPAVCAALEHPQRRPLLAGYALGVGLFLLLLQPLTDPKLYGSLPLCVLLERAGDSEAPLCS

T1 sequence (Q00975 whole entry): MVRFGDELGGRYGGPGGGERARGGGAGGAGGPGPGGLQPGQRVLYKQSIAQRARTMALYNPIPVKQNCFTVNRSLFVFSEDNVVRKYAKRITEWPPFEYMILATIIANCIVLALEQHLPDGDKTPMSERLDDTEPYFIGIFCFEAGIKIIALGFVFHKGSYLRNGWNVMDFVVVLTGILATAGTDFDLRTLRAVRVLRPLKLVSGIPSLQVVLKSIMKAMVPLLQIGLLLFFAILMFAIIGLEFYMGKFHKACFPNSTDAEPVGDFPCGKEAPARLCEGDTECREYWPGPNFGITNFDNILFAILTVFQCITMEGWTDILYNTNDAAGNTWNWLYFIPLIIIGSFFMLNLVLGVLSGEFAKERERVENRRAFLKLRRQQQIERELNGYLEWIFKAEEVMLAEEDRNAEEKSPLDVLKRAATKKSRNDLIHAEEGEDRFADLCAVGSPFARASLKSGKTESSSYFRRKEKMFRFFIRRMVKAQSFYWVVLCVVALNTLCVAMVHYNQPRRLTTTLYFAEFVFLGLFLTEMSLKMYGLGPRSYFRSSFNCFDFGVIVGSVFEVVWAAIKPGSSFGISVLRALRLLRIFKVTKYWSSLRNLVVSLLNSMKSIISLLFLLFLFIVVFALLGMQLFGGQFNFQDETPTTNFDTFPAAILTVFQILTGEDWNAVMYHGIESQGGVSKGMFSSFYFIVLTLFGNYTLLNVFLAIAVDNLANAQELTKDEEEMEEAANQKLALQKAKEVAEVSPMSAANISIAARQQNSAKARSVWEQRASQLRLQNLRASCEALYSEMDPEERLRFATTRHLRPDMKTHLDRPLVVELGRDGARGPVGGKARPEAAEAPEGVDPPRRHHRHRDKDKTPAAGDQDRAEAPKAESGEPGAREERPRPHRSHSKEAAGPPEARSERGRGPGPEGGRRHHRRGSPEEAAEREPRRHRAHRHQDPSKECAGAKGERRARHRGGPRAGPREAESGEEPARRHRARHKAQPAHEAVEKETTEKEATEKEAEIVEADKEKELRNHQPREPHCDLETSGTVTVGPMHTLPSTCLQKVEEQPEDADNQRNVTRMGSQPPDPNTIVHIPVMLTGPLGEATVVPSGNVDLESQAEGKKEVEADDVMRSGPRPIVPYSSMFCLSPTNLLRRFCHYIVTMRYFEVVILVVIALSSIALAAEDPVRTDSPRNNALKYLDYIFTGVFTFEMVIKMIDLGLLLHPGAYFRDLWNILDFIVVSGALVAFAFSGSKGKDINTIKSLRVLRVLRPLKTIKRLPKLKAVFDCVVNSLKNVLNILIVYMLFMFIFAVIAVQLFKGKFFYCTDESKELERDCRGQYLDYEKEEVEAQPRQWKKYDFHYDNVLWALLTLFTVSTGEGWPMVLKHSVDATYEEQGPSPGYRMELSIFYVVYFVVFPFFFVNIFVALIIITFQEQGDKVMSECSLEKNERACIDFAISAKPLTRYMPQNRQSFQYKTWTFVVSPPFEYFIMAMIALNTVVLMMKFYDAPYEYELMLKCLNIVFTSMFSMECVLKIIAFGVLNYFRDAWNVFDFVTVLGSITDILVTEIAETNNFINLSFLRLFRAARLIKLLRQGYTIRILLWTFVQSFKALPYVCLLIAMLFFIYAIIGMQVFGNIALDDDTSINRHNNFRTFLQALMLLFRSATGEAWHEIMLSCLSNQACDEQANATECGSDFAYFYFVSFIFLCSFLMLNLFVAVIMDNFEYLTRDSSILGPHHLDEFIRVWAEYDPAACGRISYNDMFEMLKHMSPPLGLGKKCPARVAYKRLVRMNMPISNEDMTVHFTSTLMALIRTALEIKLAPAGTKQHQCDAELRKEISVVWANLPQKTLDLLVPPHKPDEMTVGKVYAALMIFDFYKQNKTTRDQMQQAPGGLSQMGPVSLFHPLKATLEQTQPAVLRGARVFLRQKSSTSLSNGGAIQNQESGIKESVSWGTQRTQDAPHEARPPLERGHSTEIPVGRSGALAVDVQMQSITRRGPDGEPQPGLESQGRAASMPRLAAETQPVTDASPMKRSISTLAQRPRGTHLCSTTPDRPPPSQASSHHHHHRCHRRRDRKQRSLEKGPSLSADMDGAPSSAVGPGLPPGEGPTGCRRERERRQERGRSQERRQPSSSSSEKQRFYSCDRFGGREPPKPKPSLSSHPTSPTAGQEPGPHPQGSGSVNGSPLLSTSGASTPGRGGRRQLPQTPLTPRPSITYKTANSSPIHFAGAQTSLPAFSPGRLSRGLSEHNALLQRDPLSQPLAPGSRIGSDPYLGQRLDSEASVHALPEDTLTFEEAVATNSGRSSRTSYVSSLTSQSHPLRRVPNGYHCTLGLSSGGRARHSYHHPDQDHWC
T1 sequence (Q02410 whole entry): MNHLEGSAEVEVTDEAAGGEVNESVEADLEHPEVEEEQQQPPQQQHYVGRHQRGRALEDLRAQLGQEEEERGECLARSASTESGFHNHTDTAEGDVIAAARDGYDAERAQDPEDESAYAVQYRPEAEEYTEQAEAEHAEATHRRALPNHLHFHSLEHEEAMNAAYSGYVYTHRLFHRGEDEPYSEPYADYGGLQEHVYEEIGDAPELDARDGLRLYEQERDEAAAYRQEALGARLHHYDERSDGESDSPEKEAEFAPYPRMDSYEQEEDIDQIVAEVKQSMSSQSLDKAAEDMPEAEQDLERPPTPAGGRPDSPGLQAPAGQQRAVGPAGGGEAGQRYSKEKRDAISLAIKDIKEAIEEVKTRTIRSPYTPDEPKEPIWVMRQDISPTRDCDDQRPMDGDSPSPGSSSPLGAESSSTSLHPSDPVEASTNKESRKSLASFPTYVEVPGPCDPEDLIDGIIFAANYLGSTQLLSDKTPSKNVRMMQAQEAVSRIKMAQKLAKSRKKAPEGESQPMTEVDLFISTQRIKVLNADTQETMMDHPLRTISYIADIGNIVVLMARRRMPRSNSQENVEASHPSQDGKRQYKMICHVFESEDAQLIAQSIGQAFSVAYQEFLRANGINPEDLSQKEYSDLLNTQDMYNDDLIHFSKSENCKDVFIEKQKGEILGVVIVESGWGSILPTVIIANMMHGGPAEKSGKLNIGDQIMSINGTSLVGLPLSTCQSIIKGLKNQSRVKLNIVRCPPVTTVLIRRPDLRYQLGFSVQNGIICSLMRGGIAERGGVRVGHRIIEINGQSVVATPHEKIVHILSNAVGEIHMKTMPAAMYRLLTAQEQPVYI
Chain of Trypsin (P00761 whole entry): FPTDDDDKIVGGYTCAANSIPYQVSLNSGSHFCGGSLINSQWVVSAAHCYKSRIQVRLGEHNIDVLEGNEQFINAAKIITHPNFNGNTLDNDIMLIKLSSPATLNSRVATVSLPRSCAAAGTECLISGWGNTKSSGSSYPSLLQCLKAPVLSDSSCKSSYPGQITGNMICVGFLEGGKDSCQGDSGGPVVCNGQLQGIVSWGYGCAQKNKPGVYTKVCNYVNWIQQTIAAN
Chain of Protein Rev (P04618 whole entry): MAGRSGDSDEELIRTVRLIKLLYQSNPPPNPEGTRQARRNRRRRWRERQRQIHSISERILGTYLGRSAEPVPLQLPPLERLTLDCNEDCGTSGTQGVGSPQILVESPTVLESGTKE
Chain of Female germline-specific tumor suppressor gld-1 (Q17339 whole entry): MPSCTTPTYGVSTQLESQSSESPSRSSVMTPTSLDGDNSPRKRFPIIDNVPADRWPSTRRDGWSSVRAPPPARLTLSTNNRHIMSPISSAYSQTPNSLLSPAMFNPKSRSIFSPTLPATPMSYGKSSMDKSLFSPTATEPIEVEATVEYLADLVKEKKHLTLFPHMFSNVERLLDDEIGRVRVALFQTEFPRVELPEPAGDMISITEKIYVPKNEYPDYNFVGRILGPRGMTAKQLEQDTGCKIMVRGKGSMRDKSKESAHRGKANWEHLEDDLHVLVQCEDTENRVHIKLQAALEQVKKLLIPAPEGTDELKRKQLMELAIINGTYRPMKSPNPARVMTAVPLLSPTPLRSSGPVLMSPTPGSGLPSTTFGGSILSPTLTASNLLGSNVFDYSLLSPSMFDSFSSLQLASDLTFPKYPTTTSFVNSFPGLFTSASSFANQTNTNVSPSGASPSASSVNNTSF

## FC(F)(F)c1ccc(Cl)c(Nc2nnc(-c3ccncc3)s2)c1
[1]
  EC50: > 195 µM (inactive)

## O=C(NC1CCc2ccccc2C1)c1cc(-c2ccco2)nc2ccccc12 (centres undefined)
[2]
  IC50: > 56.8 µM (inactive)

## Nc1cc2nc3ccccc3nc2cc1N
[3]
  IC50: 9.53 µM (active)
[4]
  IC50: 4.97 µM (active)
[5]
  IC50: 9.86 µM (active)
[6]
  IC50: > 50 µM (inactive)
[7]
  IC50: > 100 µM (inactive)

## C=CCn1c(=O)c2c(nc(-c3ccc(S(=O)(=O)O)cc3)n2C)n(C)c1=O
[8]
  AC50: 1.41 µM (active)
[9]
  AC50: 5.44 µM (active)
